Experimental data as given in patent US11427539B2, “Beta-hydroxy heterocyclic amines and their use in the treatment of hyperglycaemia” (ATROGI AB, priority 2017, dated 2022).
Structures can show the parent of a compound that is named as a salt. Where two headings read alike, the source gives them in different places.

How the values were obtained:
[1] = tested on: Differentiated L6-myotubes; experiment: Glucose uptake in differentiated L6-myotubes (3H-2-deoxy-glucose); assay type: cell-based; settings: for Emax: read-out: Biological example 1: glucose uptake, activity compared to that of isoproterenol; for Biological example 1: glucose uptake, activity compared to that of isoproterenol: Hydrochloride
[2] = tested on: Intracellular cAMP levels in differentiated cells (L6-myotubes); experiment: Measurement of intracellular cAMP levels (alpha screen cAMP kit); assay type: cell-based; settings: for Emax: 0.25 h, read-out: Biological example 2: intracellular cAMP levels, activity compared to that of isoproterenol
Procedure: L6-myoblasts were grown in Dulbecco's Modified Eagle's Medium (DMEM) containing 4.5 g/l glucose supplemented with 10% fetal bovine serum, 2 mM L-Glutamine, 50 U/ml penicillin, 50 μg/ml streptomycin and 10 mM HEPES. Cells were plated at 1×10^5 cells per ml in 24-well plates. After reaching 90% confluence the cells were grown in medium containing 2% FBS for 7 days where upon cells differentiated into myotubes. Differentiated cells were serum-starved over night and stimulated with agonist, final concentration 1×10-^5, for 15 min in stimulation buffer (HBSS supplemented with 1% BSA, 5 mM HEPES and 1 mM IBMX, pH 7.4) The medium was then aspirated and to end the reaction 100 μL of 95% EtOH was added to each well of a 24-well plate and cells were kept in −20° C. over night. The EtOH was let to evaporate and 500 μL of lysis buffer (1% BSA, 5 mM HEPES and 0.3% Tween-20, pH 7.4) was added to each well before put in −80° C. for 30 min and then kept in −20° C. Intracellular cAMP levels were detected using an alpha screen cAMP kit (6760635D from Perkin Elmer). The activity for each compound is compared to that of isoproterenol.

[3] = agonist final concentration 1×10^−5, L6-myotubes, 3H-2-deoxy-glucose uptake, relative to isoproterenol
[4] = agonist final concentration 1×10-^5, 15 min, differentiated cells, relative to isoproterenol

SMILES	Emax [1, 3]	Emax [2, 4]	further results
C[C@H]1CC[C@@H]([C@H](O)c2cccc(O)c2)N1 (racemic) [Example 9, Racemic mixture of 3-((R)-Hydroxy((2S,5S)-5-methylpyrrolidin-2-yl)methyl)-phenol Acetate and 3-((S)-Hydroxy((2R,5R)-5-methylpyrrolidin-2-yl)methyl)phenol Acetate]	50 to 75%	< 25%	–
C[C@@H]1CC[C@H]([C@H](O)c2cccc(O)c2)N1 (racemic) [Example 10, Racemic Mixture of 3-((R)-Hydroxy((2R,5R)-5-methylpyrrolidin-2-yl)methyl)-phenol Acetate and 3-((S)-Hydroxy((2S,5S)-5-methylpyrrolidin-2-yl)methyl)phenol Acetate]	> 75%	< 25%	–
C[C@H]1CC[C@@H]([C@H](O)c2ccccc2)N1 (racemic) [Example 11, Racemic mixture of (R)-((2S,5S)-5-Methylpyrrolidin-2-yl)(phenyl)methanol and (S)-((2R,5R)-5-Methylpyrrolidin-2-yl)(phenyl)methanol]	–	–	Emax [1]: 25 to 50%; Emax [2]: < 25%
C[C@@H]1CC[C@H]([C@H](O)c2ccccc2)N1 (racemic) [Example 12, Racemic mixture of (R)-((2R,5R)-5-Methylpyrrolidin-2-yl)(phenyl)methanol and (S)-((2S,5S)-5-Methylpyrrolidin-2-yl)(phenyl)methanol]	–	–	Emax [1]: 50 to 75%; Emax [2]: < 25%
CCCC1CCC[C@H](C(O)c2cccc(O)c2)N1 (stereo in doubt) [Example 19, 3-((R)-Hydroxy((2R,6R)-6-propylpiperidin-2-yl)methyl)phenol Hydrochloride]	25 to 50%	< 25%	–
CCC[C@@H]1CCCC([C@@H](O)c2cccc(O)c2)N1 (stereo in doubt) [Example 33, 3-((S)-hydroxy((2S,6R)-6-propylpiperidin-2-yl)methyl)phenol Hydrochloride]	–	–	Biological example 1: glucose uptake, activity compared to that of isoproterenol [1, 3]: ++ (between 75 and 50%); Biological example 2: intracellular cAMP levels, activity compared to that of isoproterenol [2, 4]: − (less than 25%)
CCC[C@H]1CC[C@H](C(O)c2cccc(O)c2)N1 (stereo in doubt) [Example 46, 3-((R)-hydroxy((2R,5S)-5-propylpyrrolidin-2-yl)methyl)phenol]	50 to 75%	< 25%	–
CCC[C@@H]1CCC[C@H]([C@H](O)c2cccc(F)c2)N1 [Example 1, (R)-(3-Fluorophenyl)((2R,6R)-6-propylpiperidin-2-yl)methanol]	25 to 50%	< 25%	–
CCC[C@H]1CCC[C@H]([C@H](O)c2cccc(F)c2)N1 [Example 2, (R)-(3-Fluorophenyl)((2R,6S)-6-propylpiperidin-2-yl)methanol]	> 75%	< 25%	–
CCC[C@H]1CCC[C@H]([C@H](O)c2cc(F)cc(F)c2)N1 [Example 3, (R)-(3,5-Difluorophenyl)((2R,6S)-6-propylpiperidin-2-yl)methanol]	> 75%	< 25%	–
CCC[C@H]1CCC[C@H]([C@H](O)c2ccc(F)c(F)c2)N1 [Example 4, (R)-(3,4-Difluorophenyl)((2R,6S)-6-propylpiperidin-2-yl)methanol]	50 to 75%	< 25%	–
CCC[C@H]1CCC[C@H]([C@H](O)c2cccc(O)c2)N1 [Example 5, 3-((R)-Hydroxy((2R,6S)-6-propylpiperidin-2-yl)methyl)phenol Acetate]	> 75%	< 25%	–
CCC[C@@H]1CCC[C@H]([C@H](O)c2cccc(O)c2)N1 [Example 6, 3-((R)-Hydroxy((2R,6R)-6-propylpiperidin-2-yl)methyl)phenol]	50 to 75%	< 25%	–
CCC[C@@H]1CC[C@H]([C@H](O)c2cccc(F)c2)N1 [Example 7, (R)-(3-Fluorophenyl)((2R,5R)-5-propylpyrrolidin-2-yl)methanol Acetate]	> 75%	< 25%	–
CCC[C@@H]1CC[C@H]([C@H](O)c2cccc(O)c2)N1 [Example 8, 3-((R)-Hydroxy((2R,5R)-5-propylpyrrolidin-2-yl)methyl)phenol]	> 75%	25 to 50%	–
CCC[C@@H]1CCC[C@H]([C@@H](O)c2cccc(F)c2)N1 [Example 13, (S)-(3-Fluorophenyl)((2R,6R)-6-propylpiperidin-2-yl)methanol]	50 to 75%	< 25%	–
CCC[C@@H]1CCC[C@H]([C@@H](O)c2cccc(O)c2)N1 [Example 14, 3-((S)-Hydroxy((2R,6R)-6-propylpiperidin-2-yl)methyl)phenol Hydrochloride]	–	< 25%	Biological example 1: glucose uptake, activity compared to that of isoproterenol [1, 3]: + (between 50 and 25%)

SMILES	Emax [1, 3]	Emax [2, 4]	further results
CCC[C@@H]1CCC[C@H]([C@H](O)c2ccc(F)cc2)N1 [Example 15, (R)-(4-Fluorophenyl)((2R,6R)-6-propylpiperidin-2-yl)methanol]	50 to 75%	< 25%	–
CCC[C@@H]1CCC[C@H]([C@H](O)c2ccccc2F)N1 [Example 16, (R)-(2-Fluorophenyl)((2R,6R)-6-propylpiperidin-2-yl)methanol]	50 to 75%	< 25%	–
CCC[C@@H]1CCC[C@H]([C@@H](O)c2ccccc2F)N1 [Example 17, (S)-(2-Fluorophenyl)((2R,6R)-6-propylpiperidin-2-yl)methanol hydrochloride]	25 to 50%	< 25%	–
CCC[C@H]1CCC[C@H]([C@@H](O)c2cccc(F)c2)N1 [Example 18, (S)-(3-Fluorophenyl)((2R,6S)-6-propylpiperidin-2-yl)methanol]	50 to 75%	< 25%	–
CCC[C@H]1CCC[C@H]([C@H](O)c2cccc(Cl)c2)N1 [Example 20, (R)-(3-Chlorophenyl)((2R,6S)-6-propylpiperidin-2-yl)methanol hydrochloride]	25 to 50%	< 25%	–
CCC[C@H]1CCC[C@H]([C@@H](O)c2cccc(Cl)c2)N1 [Example 21, (S)-(3-Chlorophenyl)((2R,6S)-6-propylpiperidin-2-yl)methanol hydrochloride]	25 to 50%	< 25%	–
CCC[C@H]1CCC[C@H]([C@H](O)c2ccccc2F)N1 [Example 22, (R)-(2-Fluorophenyl)((2R,6S)-6-propylpiperidin-2-yl)methanol]	50 to 75%	< 25%	–
CCC[C@H]1CCC[C@H]([C@H](O)c2ccccc2Cl)N1 [Example 24, (R)-(2-Chlorophenyl)((2R,6S)-6-propylpiperidin-2-yl)methanol]	25 to 50%	< 25%	–
CCC[C@H]1CCC[C@H]([C@H](O)c2ccc(F)cc2)N1 [Example 25, (R)-(4-Fluorophenyl)((2R,6S)-6-propylpipehdin-2-yl)methanol]	50 to 75%	< 25%	–
CCC[C@H]1CCC[C@H]([C@@H](O)c2cc(F)cc(F)c2)N1 [Example 27, (S)-(3,5-Difluorophenyl)((2R,6S)-6-propylpiperidin-2-yl)methanol acetate]	25 to 50%	< 25%	–
CCC[C@H]1CCC[C@H]([C@@H](O)c2ccc(F)c(F)c2)N1 [Example 28, (S)-(3,4-Difluorophenyl)((2R,6S)-6-propylpiperidin-2-yl)methanol]	25 to 50%	< 25%	–
CCC[C@@H]1CCC[C@@H]([C@H](O)c2cccc(F)c2)N1 [Example 29, (R)-(3-Fluorophenyl)((2S,6R)-6-propylpiperidin-2-yl)methanol hydrochloride]	25 to 50%	< 25%	–
CCC[C@@H]1CCC[C@@H]([C@H](O)c2cccc(Cl)c2)N1 [Example 30, (R)-(3-Chlorophenyl)((2S,6R)-6-propylpiperidin-2-yl)methanol hydrochloride]	> 75%	< 25%	–
CCC[C@@H]1CCC[C@@H]([C@H](O)c2cccc(O)c2)N1 [Example 32, 3-((R)-hydroxy((2S,6R)-6-propylpiperidin-2-yl)methyl)phenol Hydrochloride]	> 75%	< 25%	–
CCC[C@H]1CCC[C@@H]([C@H](O)c2cccc(F)c2)N1 [Example 34, (R)-(3-Fluorophenyl)((2S,6S)-6-propylpiperidin-2-yl)methanol hydrochloride]	50 to 75%	< 25%	–
CCC[C@H]1CCC[C@@H]([C@@H](O)c2cccc(F)c2)N1 [Example 35, (S)-(3-Fluorophenyl)((2S,6S)-6-propylpiperidin-2-yl)methanol hydrochloride]	25 to 50%	< 25%	–
CCC[C@H]1CCC[C@@H]([C@H](O)c2cccc(Cl)c2)N1 [Example 36, (R)-(3-Chlorophenyl)((2S,6S)-6-propylpiperidin-2-yl)methanol hydrochloride]	25 to 50%	< 25%	–
